Laboratory results from patent publication US8686184B2, “Neprilysin inhibitors” (Theravance, Inc., priority 2011, dated 2014).

Target: T1, human neprilysin (EC 3.4.24.11; NEP) (Homo sapiens, UniProt P08473)
T1 construct: purchased R&D Systems, Minneapolis, Minn; 1182-ZN
Assay: In vitro enzyme inhibition assay at human NEP (fluorogenic peptide substrate)
Assay type: biochemical
Conditions: recombinant human NEP; 37° C.; substrate Mca-D-Arg-Arg-Leu-Dap-(Dnp)-OH 10 μM; values given as ranges; read-out: pKi values at human NEP (converted)
Outline: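 Recombinant human NEP pre-incubated 30 min at 37 °C with compound (10 μM to 20 pM), then cleaved 20 min at 37 °C with 10 μM Mca-D-Arg-Arg-Leu-Dap-(Dnp)-OH in HEPES pH 7.5, NaCl, Tween-20, 10 μM ZnSO4. Stopped with acetic acid; fluorescence Ex 320/Em 405 nm; apparent Ki from v=v0/[1+(I/K′)] fit, reported as pKi.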

T1 sequence (P08473 52-750 limits assumed): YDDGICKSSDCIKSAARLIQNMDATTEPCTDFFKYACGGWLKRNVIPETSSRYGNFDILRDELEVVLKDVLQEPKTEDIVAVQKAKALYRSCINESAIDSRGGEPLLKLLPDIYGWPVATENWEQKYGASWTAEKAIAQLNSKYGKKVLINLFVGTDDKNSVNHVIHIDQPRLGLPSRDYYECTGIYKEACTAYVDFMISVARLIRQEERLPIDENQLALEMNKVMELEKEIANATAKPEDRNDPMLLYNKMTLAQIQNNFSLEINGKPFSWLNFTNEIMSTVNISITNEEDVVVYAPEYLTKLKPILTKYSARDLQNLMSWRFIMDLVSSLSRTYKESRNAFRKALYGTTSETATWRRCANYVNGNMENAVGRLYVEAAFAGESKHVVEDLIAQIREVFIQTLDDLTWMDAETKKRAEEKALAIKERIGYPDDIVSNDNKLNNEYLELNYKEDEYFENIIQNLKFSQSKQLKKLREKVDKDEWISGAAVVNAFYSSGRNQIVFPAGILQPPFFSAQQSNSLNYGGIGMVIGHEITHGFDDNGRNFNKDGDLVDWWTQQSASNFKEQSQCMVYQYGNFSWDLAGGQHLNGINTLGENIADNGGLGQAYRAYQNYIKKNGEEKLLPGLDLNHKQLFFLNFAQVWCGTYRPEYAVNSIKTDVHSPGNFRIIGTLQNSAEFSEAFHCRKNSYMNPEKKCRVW

Ki [µM] | Structure (SMILES)
0.0126 to 0.1 | Cc1cc(C(=O)N[C@H](Cc2ccccc2)[C@@H](O)C(=O)O)cc(C)c1F [Example 10-82, (2R,3R)-3-(4-Fluoro-3,5-dimethyl-benzoylamino)-2-hydroxy-4-phenyl-butyric acid]
0.00126 to 0.01 | O=C(O)C[C@@H](Cc1ccccc1Cl)NC(=O)CCCc1ccccc1C(=O)O [Example 11, 2-{3-[(R)-1-Carboxymethyl-2-(2-chlorophenyl)-ethylcarbamoyl]-propyl}-benzoic Acid]
0.00126 to 0.01 | Cc1ccc(C(=O)N[C@@H](CC(=O)O)Cc2ccccc2Cl)cc1-c1ccccc1C(=O)O [Example 12, 5′-[(R)-2-Carboxy-1-(2-chloro-benzyl)-ethylcarbamoyl]-2′-methyl-biphenyl-2-carboxylic Acid]
0.0126 to 0.1 | O=C(O)Cc1ccccc1-c1cccc(C(=O)N[C@@H](CC(=O)O)Cc2ccccc2Cl)c1 [Example 13-1, (R)-3-[(2′-Carboxymethyl-biphenyl-3-carbonyl)-amino]-4-(2-chloro-phenyl)-butyric acid]
0.00126 to 0.01 | O=C(O)C[C@@H](Cc1ccccc1Cl)NC(=O)c1cccc(-c2ccccc2C(=O)O)c1 [Example 13-2, 3′-[(R)-2-Carboxy-1-(2-chloro-benzyl)-ethylcarbamoyl]-biphenyl-2-carboxylic acid]
0.00126 to 0.01 | Cc1ccc(C(=O)N[C@@H](CC(=O)O)Cc2ccccc2Cl)cc1-c1ccccc1CC(=O)O [Example 13-3, (R)-3-[(2′-Carboxymethyl-6-methyl-biphenyl-3-carbonyl)-amino]-4-(2-chloro-phenyl)-butyric acid]
0.0126 to 0.1 | O=C(O)Cc1ccccc1-c1ccc(C(=O)N[C@@H](CC(=O)O)Cc2ccccc2Cl)cc1 [Example 13-4, (R)-3-[(2′-Carboxymethyl-biphenyl-4-carbonyl)-amino]-4-(2-chloro-phenyl)-butyric acid]
0.0126 to 0.1 | CC1=NN(c2ccc(C(=O)N[C@@H](CC(=O)O)Cc3ccccc3Cl)cc2Cl)C(=O)C1 [Example 13-5, (R)-3-[3-Chloro-4-(3-methyl-5-oxo-4,5-dihydro-pyrazol-1-yl)-benzoylamino]-4-(2-chloro-phenyl)-butyric acid]
0.0126 to 0.1 | CC1=NN(c2ccc(C(=O)N[C@@H](CC(=O)O)Cc3ccccc3Cl)cc2)C(=O)C1 [Example 13-6, (R)-4-(2-Chlorophenyl)-3-[4-(3-methyl-5-oxo-4,5-dihydro-pyrazol-1-yl)-benzoylamino]-butyric acid]
0.0126 to 0.1 | CC1=NN(c2cccc(C(=O)N[C@@H](CC(=O)O)Cc3ccccc3Cl)c2)C(=O)C1 [Example 13-8, (R)-4-(2-Chlorophenyl)-3-[3-(3-methyl-5-oxo-4,5-dihydro-pyrazol-1-yl)-benzoylamino]-butyric acid]
0.0126 to 0.1 | CCCC1=NN(c2cccc(C(=O)N[C@@H](CC(=O)O)Cc3ccccc3Cl)c2)C(=O)C1 [Example 13-9, (R)-4-(2-Chlorophenyl)-3-[3-(5-oxo-3-propyl-4,5-dihydro-pyrazol-1-yl)-benzoylamino]-butyric acid]
0.0126 to 0.1 | CCc1ccc(C(=O)N[C@@H](CC(=O)O)Cc2ccccc2Cl)cc1-n1c(=O)[nH]c2sc(C)cc2c1=O [Example 13-10, (R)-4-(2-Chlorophenyl)-3-[4-ethyl-3-(6-methyl-2,4-dioxo-1,4-dihydro-2H-thieno[2,3-d]pyrimidin-3-yl)-benzoylamino]-butyric acid]
0.00126 to 0.01 | Cc1ccc(C(=O)N[C@@H](CC(=O)O)Cc2ccccc2C(F)(F)F)cc1-c1ccccc1C(=O)O [Example 14, 5′-[(R)-2-Carboxy-1-(2-trifluoromethyl-benzyl)-ethylcarbamoyl]-2′-methyl-biphenyl-2-carboxylic Acid]
